Results published in patent publication US8541449B2, “Substituted isoquinolines and isoquinolinones as Rho kinase inhibitors” (Sanofi, priority 2008, dated 2013).

How the values were obtained:
Protein Kinase G = settings: Rho kinase versus Protein Kinase G; cited from earlier work
recombinant human PKA = target: T1, recombinant human PKA (Homo sapiens, UniProt P17612); experiment: Determination of Protein Kinase A inhibition (Caliper peptide phosphorylation assay); format: biochemical; settings: recombinant human PKA versus ROCK II
T1 construct: Active recombinant human PKA (residues 1-351, N-terminal His-tag); His-tag (N); purchased Invitrogen, Karlsruhe, Germany
Procedure, shortened: (§1)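 Full-length His-tagged PKG1-beta (150 ng/ml working) or His-tagged PKA residues 1-351 (30 ng/ml working) was mixed with compound in pH 7.4 Tris/MgCl2/DTT buffer. Fluorescein-peptide substrate and ATP (3 μM and 120 μM working) were then added for 60 min at 32 °C before an EDTA stop. Phosphopeptide was separated electrophoretically on a Caliper instrument to derive IC50.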

[1] = target: T2, human recombinant ROCK II (Homo sapiens, UniProt O75116); experiment: Determination of Rho kinase inhibition (Caliper peptide phosphorylation assay); format: biochemical; settings: 60 min at 32° C., negative decadal logarithm of the IC50
T2 construct: N-terminal His6-tagged recombinant human ROCK-II residues 11-552; His6 (N); purchased Millipore GmbH, Schwalbach, Germany
Procedure, shortened: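 His6-tagged human ROCK II (residues 11-552) phosphorylated a fluorescein-labelled peptide for 60 min at 32° C in Tris-HCl pH 7.4 with MgCl2, DTT and BSA, using 3 μM peptide and 120 μM ATP as diluted stocks. EDTA-stopped; phosphopeptide separated and detected by Caliper mobility shift; IC50 determined.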

[2] = target: T3, recombinant human PKG1-beta (Homo sapiens, UniProt Q13976); experiment: Determination of Protein Kinase G inhibition (Caliper peptide phosphorylation assay); format: biochemical; settings: recombinant human PKG1-beta versus ROCK II
T3 construct: Active recombinant human PKG1-beta (full-length, with N-terminal His-tag); His-tag (N); purchased Millipore GmbH, Schwalbach, Germany
T3 sequence (Q13976 1-686 isoform Q13976-2): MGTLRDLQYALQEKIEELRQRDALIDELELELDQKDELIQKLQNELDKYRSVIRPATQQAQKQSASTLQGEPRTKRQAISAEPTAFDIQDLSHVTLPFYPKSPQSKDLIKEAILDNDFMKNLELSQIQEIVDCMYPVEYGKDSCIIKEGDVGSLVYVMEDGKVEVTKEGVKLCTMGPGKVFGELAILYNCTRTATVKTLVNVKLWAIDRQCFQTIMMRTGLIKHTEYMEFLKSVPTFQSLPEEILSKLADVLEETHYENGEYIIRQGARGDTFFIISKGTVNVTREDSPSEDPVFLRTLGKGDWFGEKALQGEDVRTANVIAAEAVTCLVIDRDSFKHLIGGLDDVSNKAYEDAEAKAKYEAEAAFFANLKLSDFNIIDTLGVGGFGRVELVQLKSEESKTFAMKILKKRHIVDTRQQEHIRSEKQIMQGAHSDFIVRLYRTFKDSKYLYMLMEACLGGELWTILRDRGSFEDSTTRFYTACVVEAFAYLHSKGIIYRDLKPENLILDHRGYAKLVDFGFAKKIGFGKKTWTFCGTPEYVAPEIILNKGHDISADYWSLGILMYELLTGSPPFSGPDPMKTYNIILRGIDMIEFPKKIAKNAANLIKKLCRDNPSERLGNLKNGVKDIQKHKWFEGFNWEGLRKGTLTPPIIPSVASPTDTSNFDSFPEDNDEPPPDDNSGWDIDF
Procedure, shortened: as §1

T2 sequence (O75116 11-552): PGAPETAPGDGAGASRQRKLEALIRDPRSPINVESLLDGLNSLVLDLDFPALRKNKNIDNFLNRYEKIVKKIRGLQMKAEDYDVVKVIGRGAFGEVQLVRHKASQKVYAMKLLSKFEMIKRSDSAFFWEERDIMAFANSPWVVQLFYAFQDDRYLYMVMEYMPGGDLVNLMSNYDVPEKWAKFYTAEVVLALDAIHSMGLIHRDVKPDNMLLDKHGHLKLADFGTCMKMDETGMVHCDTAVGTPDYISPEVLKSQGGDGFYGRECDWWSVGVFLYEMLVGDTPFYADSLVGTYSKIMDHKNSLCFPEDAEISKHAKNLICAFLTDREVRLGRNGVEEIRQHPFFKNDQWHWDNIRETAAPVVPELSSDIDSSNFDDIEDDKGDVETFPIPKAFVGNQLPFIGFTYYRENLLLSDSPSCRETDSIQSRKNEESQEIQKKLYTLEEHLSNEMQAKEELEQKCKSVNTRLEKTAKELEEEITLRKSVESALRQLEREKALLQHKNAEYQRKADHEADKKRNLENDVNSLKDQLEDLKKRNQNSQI

| Selectivity against PKA (recombinant human PKA) | pIC50 [1] | Selectivity against PKG [2] | SMILES | selectivity against Protein Kinase G (Protein Kinase G) |
| --- | --- | --- | --- | --- |
|  |  |  | C[C@@H](N)[C@H]1CC[C@H](C(=O)Nc2ccncc2)CC1 [Example Y-27632] | 20 fold |
| >100 | +++++ (6.0≦pIC50<7.0) | >10 | CCC(N)[C@]1(c2cccc(OC(F)(F)F)c2)CC[C@H](Oc2cc3cc[nH]c(=O)c3cc2C)CC1 (stereo partly drawn) [Example 85, cis-6-[4-(1-Amino-propyl)-4-(3-trifluoro-methoxy-phenyl)-cyclo-hexyloxy]-7-methyl-2H-iso quinolin-1-one] |  |
